Experimental data reported in patent publication US11040027B2, “Protein kinase inhibitors for promoting liver regeneration or reducing or preventing hepatocyte death” (HEPAREGENIX GMBH, priority 2017, dated 2021).

Key:
MEKK2 = molecular target: T1, MEKK2 (Homo sapiens, UniProt Q9Y2U5); assay: Radiometric protein kinase assay, MEKK2; format: biochemical; settings: substrate Casein, ATP 0.2 μM; read-out: MEKK2 (potency derived from IC50-values)
T1 construct: purchased ProQinase 0583-0000-1
T1 sequence (Q9Y2U5 1-619): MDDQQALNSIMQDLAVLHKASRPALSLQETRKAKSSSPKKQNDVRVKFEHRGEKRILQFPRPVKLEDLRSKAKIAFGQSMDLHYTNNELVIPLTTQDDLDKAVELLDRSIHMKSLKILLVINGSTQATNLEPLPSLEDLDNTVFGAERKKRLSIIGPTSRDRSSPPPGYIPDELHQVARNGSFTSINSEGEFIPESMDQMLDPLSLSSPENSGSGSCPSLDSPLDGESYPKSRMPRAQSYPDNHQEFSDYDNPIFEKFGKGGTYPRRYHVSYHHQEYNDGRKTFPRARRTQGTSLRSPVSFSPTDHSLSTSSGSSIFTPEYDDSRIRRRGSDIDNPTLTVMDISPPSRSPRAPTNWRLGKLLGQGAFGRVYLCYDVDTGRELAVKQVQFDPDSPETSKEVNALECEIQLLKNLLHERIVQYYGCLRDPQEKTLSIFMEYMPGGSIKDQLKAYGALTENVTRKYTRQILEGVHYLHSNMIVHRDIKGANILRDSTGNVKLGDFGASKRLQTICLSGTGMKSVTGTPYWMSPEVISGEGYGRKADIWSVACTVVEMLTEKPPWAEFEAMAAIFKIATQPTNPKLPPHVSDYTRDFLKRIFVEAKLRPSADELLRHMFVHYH
Description: (§1) A radiometric protein kinase assay was used for measuring the kinase activity of the respective protein kinases. All kinase assays were performed in 96-well polypropylene plates. After the reactions were stopped, the assay mixtures were transferred to 96-well MSFC filter-plates (Millipore). The reaction mix was passed through the filter membrane by aspiration, the membrane was washed 3 times with 150 mM H3PO4, once with ethanol, dried and liquid scintillation cocktail was added. Radioactivity was determined by counting of the samples in a Microbeta multiwell scintillation counter (Wallac).
(§2) b) Single Kinases • 20 μl standard assay buffer • 5 μl compound in 10% DMSO • 20 μl enzyme-substrate mix • 10 μl of substrate solution
(§3) The reaction cocktails were incubated at 30° C. for 30 minutes.

MKK4 active = molecular target: T2, MKK4 active (Homo sapiens, UniProt P45985); assay: Radiometric protein kinase assay, MKK4 active; format: biochemical; settings: substrate JNK1 KRKR, ATP 0.2 μM, read-out: MKK4 (potency derived from IC50-values)
T2 construct: purchased ProQinase 0948-0000-1
T2 sequence (P45985 1-399): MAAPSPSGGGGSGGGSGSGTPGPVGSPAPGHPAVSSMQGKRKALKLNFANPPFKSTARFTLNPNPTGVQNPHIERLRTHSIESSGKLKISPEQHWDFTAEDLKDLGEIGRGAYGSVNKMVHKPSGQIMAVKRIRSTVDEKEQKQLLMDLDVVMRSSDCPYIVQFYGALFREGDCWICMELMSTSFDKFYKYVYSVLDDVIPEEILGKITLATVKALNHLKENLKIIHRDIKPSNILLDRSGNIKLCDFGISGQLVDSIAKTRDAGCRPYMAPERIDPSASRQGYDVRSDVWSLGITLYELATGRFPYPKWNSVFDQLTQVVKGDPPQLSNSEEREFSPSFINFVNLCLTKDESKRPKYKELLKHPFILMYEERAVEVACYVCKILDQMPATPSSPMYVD
Description: as §1, §2, §3

JNK1 = JNK1 (Homo sapiens, UniProt P45983); assay: KINOMEscan competition binding assay, selectivity JNK1 versus MKK4; settings: ratio of percent of control
JNK1, sequence (P45983 1-384 isoform P45983-2): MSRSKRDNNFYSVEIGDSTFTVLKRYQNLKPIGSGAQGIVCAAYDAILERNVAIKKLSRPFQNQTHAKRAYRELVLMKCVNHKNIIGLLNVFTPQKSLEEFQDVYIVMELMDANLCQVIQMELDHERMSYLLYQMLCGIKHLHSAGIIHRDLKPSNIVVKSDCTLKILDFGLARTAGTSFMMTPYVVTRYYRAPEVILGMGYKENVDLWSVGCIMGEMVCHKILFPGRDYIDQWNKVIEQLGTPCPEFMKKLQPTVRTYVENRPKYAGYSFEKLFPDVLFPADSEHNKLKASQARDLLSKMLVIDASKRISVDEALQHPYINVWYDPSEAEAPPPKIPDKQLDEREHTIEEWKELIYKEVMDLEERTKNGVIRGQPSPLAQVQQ
Description: (§4) The assay was performed by combining three components: DNA-tagged kinase; immobilized ligand; and a test compound. The ability of the test compound to compete with the immobilized ligand was measured via quantitative PCR of the DNA tag.
(§5) For investigation of the affinity to MKK4, MKK7 and JNK1, the kinases were produced in HEK-293 cells and subsequently tagged with DNA for qPCR detection. […] The liganded beads were blocked with excess biotin and washed with blocking buffer (SEABLOCK™ (Pierce), 1% BSA, 0.05% TWEEN®20, 1 mM DTT) to remove unbound ligand and to reduce nonspecific binding. […] All reactions were performed in polystyrene 96-well plates in a final volume of 0.135 mL. […] The kinase concentration in the eluates was measured by qPCR.
(§6) The test compounds were provided as 10 mM stock solutions. The test solutions at indicated final concentrations were prepared at DiscoverX.

MKK7 = molecular target: T3, MKK7 (Homo sapiens, UniProt O14733); assay: KINOMEscan competition binding assay, selectivity MKK7 versus MKK4; settings: Test conc. 0.1 μM; ratio of percent of control; N/E* per footnote
T3 sequence (O14733 1-419): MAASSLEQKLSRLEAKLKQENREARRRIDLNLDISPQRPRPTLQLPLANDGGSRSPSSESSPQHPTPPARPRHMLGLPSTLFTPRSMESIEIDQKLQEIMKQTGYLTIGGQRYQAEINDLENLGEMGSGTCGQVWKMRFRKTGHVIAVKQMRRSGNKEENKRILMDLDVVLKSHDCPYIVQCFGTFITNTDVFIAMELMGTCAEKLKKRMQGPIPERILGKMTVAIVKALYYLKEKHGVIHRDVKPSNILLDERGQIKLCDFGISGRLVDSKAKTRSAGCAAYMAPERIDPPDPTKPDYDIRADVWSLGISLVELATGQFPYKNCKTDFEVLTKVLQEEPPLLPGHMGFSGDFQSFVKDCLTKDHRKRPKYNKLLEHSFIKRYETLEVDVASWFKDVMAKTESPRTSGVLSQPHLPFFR
Description: as §4, §5, §6

MKK4 = molecular target: T4, MKK4 (Homo sapiens, UniProt P45985); assay: KINOMEscan competition binding assay, MKK4; settings: read-out: Potency MKK4 (derived from % of control values, PoC)
T4 sequence (P45985 84-399): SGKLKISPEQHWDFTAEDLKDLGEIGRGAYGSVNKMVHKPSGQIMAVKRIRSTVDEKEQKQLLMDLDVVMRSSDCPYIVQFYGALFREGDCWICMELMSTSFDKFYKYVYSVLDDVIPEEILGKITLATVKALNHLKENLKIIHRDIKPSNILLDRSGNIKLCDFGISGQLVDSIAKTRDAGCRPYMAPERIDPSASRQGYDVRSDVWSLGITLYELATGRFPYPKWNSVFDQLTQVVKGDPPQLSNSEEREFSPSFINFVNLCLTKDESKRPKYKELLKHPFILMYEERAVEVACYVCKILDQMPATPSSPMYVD

BRaf = BRaf (Homo sapiens, UniProt P15056); assay: KINOMEscan competition binding assay, selectivity BRaf versus MKK4; settings: Test conc. 0.1 μM; ratio of percent of control; N/E* per footnote
BRaf, sequence (P15056 whole entry): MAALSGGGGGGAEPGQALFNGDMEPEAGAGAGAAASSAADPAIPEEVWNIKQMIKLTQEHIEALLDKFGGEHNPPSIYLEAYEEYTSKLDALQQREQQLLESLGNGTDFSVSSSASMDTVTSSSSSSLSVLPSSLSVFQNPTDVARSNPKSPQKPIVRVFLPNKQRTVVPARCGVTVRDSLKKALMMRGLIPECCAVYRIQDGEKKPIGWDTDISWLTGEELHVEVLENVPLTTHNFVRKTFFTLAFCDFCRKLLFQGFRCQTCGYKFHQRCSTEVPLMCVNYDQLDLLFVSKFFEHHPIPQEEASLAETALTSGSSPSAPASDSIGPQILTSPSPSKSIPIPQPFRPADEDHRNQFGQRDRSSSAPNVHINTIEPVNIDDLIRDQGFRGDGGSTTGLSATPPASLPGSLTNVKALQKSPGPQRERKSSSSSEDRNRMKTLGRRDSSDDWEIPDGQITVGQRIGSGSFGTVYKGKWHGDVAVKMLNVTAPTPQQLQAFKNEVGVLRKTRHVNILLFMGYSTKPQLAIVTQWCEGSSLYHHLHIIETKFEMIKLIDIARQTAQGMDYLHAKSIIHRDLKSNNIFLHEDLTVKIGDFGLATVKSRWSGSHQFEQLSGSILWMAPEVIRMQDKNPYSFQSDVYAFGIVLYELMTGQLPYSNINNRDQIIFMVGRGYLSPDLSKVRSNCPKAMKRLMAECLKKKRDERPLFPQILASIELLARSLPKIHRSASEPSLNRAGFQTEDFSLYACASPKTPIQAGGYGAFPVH

[1] = Test conc 0.1 μM, N/E* = PoC for JNK1 = 100

SMILES	IC50 (MEKK2) [µM]	IC50 (MKK4 active) [µM]	Selectivity JNK1/MKK4 (JNK1; Test conc 10 μM)	Selectivity MKK7/MKK4 (MKK7)	remaining binding at 0.1 µM (MKK4) [%]	Selectivity BRaf/MKK4 (BRaf)	Selectivity JNK1/MKK4 (JNK1; [1])
CCCS(=O)(=O)Nc1ccc(F)c(C(=O)c2c[nH]c3ncc(-c4ccccc4Cl)cc23)c1F [Example 13, N-(3-(5-(2-Chlorophenyl)-1H-pyrrolo[2,3-b]pyridine-3-carbonyl)-2,4-difluorophenyl)propane-1-sulfonamide]	1 to 10	< 0.5	>100	10	10 to 30	10.5	–
CS(=O)(=O)Nc1cccc(C(=O)c2c[nH]c3ncc(-c4ccc5c(c4)OCCO5)cc23)c1F [Example 36, N-(3-(5-(2,3-Dihydrobenzo[b][1,4]dioxin-6-yl)-1H-pyrrolo[2,3-b]pyridine-3-carbonyl)-2-fluorophenyl)methanesulfonamide]	> 10	> 10	–	19.6	< 10	18.8	N/E* (PoC for JNK1 = 100)
Cc1cc(F)ccc1-c1cnc2[nH]cc(C(=O)c3cccc(NS(C)(=O)=O)c3F)c2c1 [Example 37, N-(2-Fluoro-3-(5-(4-fluoro-2-methylphenyl)-1H-pyrrolo[2,3-b]pyridine-3-carbonyl)phenyl)methanesulfonamide]	> 10	0.5 to 1	–	14.1	< 10	13.2	N/E* (PoC for JNK1 = 100)
CS(=O)(=O)Nc1cccc(C(=O)c2c[nH]c3ncc(-c4ccccc4Cl)cc23)c1F [Example 38, N-(3-(5-(2-Chlorophenyl)-1H-pyrrolo[2,3-b]pyridine-3-carbonyl)-2-fluorophenyl) methanesulfonamide]	1 to 10	< 0.5	–	5.3	10 to 30	5.3	N/E* (PoC for JNK1 = 100)
CCCS(=O)(=O)Nc1ccc(F)c(C(=O)c2c[nH]c3ncc(-c4ccc(F)cc4Cl)cc23)c1F [Example 40, N-(3-(5-(2-Chloro-4-fluorophenyl)-1H-pyrrolo[2,3-b]pyridine-3-carbonyl)-2,4-difluorophenyl)propane-1-sulfonamide]	1 to 10	< 0.5	–	5.6	10 to 30	4.7	N/E* (PoC for JNK1 = 100)
CCCS(=O)(=O)Nc1ccc(F)c(C(=O)c2c[nH]c3ncc(-c4cc5c(cc4Cl)OCCO5)cc23)c1F [Example 44, N-(3-(5-(7-Chloro-2,3-dihydrobenzo[b][1,4]dioxin-6-yl)-1H-pyrrolo[2,3-b]pyridine-3-carbonyl)-2,4-difluorophenyl)propane-1-sulfonamide]	1 to 10	< 0.5	–	18	< 10	14	N/E* (PoC for JNK1 = 100)
CC(C)c1ccc(-c2cnc3[nH]cc(C(=O)c4cccc(NS(C)(=O)=O)c4F)c3c2)cc1 [Example 45]	> 10	1 to 10	–	N/E* (PoC for JNK1 = 100)	> 30	N/E* (PoC for JNK1 = 100)	N/E* (PoC for JNK1 = 100)
COc1ccc(-c2cnc3[nH]cc(C(=O)c4cccc(NS(C)(=O)=O)c4F)c3c2)c(Cl)c1 [Example 46]	1 to 10	< 0.5	–	10	< 10	N/E* (PoC for JNK1 = 100)	N/E* (PoC for JNK1 = 100)
CS(=O)(=O)Nc1cccc(C(=O)c2c[nH]c3ncc(-c4cc5c(cc4Cl)OCO5)cc23)c1F [Example 47]	1 to 10	< 0.5	–	9.7	< 10	N/E* (PoC for JNK1 = 100)	10
CS(=O)(=O)Nc1cccc(C(=O)c2c[nH]c3ncc(-c4cc5c(cc4Cl)OCCO5)cc23)c1F [Example 48]	> 10	1 to 10	–	8.7	10 to 30	N/E* (PoC for JNK1 = 100)	8.4
CCCCS(=O)(=O)Nc1cccc(C(=O)c2c[nH]c3ncc(-c4ccc(Cl)cc4)cc23)c1F [Example 50]	> 10	< 0.5	–	N/E* (PoC for JNK1 = 100)	10 to 30	7.0	N/E* (PoC for JNK1 = 100)
CCCCS(=O)(=O)Nc1cccc(C(=O)c2c[nH]c3ncc(-c4ccc(OC)cc4Cl)cc23)c1F [Example 52]	> 10	< 0.5	–	N/E* (PoC for JNK1 = 100)	< 10	N/E* (PoC for JNK1 = 100)	17
CCCCS(=O)(=O)Nc1cccc(C(=O)c2c[nH]c3ncc(-c4ccc5c(c4)OCO5)cc23)c1F [Example 53]	1 to 10	< 0.5	–	N/E* (PoC for JNK1 = 100)	< 10	56	N/E* (PoC for JNK1 = 100)
